Earlier results in patent US20080311200A1, “Controlled Slow Release Formulation of Thiamine and Use Thereof in the Treatment of Pathologies Connected to Defective Process of Learning and Memorization” (BIOPROGRESS S.P.A., priority 2004, published 2008).

System: mechanism of active transport through the intestine wall

Compound: Cc1ncc(C[n+]2csc(CCO)c2C)c(N)n1 [thiamine]
- concentration above which the active transport of intestinal absorption reaches saturation: higher than 2 μM
